The structures appear in SMILES notation.

The term IC50 denotes the concentration at which inhibition is half-maximal.

T2 sequence (P40145 whole entry): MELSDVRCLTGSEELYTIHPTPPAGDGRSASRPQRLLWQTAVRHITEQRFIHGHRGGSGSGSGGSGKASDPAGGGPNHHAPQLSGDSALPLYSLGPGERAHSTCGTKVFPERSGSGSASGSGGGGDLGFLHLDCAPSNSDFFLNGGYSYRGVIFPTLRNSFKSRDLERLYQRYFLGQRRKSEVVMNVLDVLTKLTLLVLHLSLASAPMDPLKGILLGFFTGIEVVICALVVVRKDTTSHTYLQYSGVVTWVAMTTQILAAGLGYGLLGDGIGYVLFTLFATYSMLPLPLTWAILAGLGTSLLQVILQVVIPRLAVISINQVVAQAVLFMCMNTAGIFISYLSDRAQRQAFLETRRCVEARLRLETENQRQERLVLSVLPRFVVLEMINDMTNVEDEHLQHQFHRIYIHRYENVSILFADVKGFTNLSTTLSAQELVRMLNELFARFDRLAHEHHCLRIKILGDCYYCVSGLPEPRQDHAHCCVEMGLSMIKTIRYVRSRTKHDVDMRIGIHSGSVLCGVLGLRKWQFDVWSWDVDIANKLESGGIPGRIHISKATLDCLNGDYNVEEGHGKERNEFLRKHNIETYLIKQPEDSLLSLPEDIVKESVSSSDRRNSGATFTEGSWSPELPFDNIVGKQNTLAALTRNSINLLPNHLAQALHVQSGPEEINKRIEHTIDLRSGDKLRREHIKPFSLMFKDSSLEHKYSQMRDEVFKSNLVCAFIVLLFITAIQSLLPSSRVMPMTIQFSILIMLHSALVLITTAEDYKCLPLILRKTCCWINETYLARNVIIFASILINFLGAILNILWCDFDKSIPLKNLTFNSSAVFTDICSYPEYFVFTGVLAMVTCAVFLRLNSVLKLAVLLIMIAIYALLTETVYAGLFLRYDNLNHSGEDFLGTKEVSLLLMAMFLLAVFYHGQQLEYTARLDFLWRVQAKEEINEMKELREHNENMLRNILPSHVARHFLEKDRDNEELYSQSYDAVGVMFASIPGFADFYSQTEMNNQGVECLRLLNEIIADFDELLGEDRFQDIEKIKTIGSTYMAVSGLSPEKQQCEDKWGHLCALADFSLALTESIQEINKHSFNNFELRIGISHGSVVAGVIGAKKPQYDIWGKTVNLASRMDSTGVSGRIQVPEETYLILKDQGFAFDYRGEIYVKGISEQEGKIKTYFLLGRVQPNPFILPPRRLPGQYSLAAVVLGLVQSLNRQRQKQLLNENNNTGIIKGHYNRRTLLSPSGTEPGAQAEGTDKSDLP

The target of one data set is T1, hAC1 (Homo sapiens, UniProt Q08828).
T1 construct: expressed in transfected cells
T1 sequence (Q08828 whole entry): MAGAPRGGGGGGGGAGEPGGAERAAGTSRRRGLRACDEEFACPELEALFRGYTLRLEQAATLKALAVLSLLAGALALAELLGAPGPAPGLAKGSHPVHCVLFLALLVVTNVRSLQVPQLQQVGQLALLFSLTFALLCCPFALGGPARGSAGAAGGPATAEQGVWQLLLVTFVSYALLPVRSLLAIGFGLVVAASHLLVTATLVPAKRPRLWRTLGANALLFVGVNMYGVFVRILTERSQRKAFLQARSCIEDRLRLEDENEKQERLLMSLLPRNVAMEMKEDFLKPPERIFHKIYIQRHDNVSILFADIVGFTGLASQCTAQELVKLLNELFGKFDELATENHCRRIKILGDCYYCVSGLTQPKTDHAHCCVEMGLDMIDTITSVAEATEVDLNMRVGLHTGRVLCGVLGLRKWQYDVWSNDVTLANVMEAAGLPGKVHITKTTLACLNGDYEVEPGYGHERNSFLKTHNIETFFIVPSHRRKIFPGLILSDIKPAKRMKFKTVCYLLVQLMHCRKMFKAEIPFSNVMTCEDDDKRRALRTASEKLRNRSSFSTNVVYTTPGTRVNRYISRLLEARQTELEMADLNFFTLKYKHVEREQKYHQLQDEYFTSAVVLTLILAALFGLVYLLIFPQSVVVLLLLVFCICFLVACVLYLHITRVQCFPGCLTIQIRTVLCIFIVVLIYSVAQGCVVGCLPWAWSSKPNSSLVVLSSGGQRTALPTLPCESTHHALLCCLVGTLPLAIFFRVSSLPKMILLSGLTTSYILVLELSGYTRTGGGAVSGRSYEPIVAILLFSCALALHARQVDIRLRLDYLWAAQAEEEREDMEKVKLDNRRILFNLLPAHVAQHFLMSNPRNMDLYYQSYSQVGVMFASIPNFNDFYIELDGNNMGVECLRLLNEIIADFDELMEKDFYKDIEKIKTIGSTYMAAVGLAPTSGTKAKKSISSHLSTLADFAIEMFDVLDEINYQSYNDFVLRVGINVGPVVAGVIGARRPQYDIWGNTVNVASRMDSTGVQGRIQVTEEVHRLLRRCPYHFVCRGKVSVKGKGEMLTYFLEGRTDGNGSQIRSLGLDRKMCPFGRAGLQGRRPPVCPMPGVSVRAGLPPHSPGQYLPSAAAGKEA
Kind of data set: Cyclic AMP accumulation in HEK cells stably expressing AC1, stimulated with A23187 (HTRF). The settings on record: AC8 IC50/AC1 IC50; in the absence of AC8 IC50, estimate based on IC50 ≥30 μM. It is filed as cell-based.
Regarding `O=C(Nc1nnc(-c2ccc3c(c2)OCCO3)o1)c1ccc(Br)cc1` [F0608-0011], the “Selectivity AC1 vs AC8” value is reported as 9-fold.
As for `CC1CC(C)CN(S(=O)(=O)c2ccc(C(=O)Nc3nnc(-c4cccs4)o3)cc2)C1` (stereo not shown) [F0559-0346], the “Selectivity AC1 vs AC8” value is 2-fold.
Still for that read-out and setting: the value for `O=C(Nc1nnc(-c2ccc3c(c2)CCCC3)o1)c1ccccc1` [F0608-0538] was 10-fold; that for `CSc1cccc(C(=O)Nc2nnc(C3CCCCC3)o2)c1` [F2289-0107] was >4-fold.
With `CCc1c(C)nc(-n2nc(C)cc2NC(=O)c2ccco2)[nH]c1=O` [F2215-0772], the “Selectivity AC1 vs AC8” value is on record as >30-fold.
In the case of `CSc1ccccc1C(=O)Nc1cc(C)nn1-c1nc2c(c(=O)[nH]1)CCC2` [F2215-0954], the “Selectivity AC1 vs AC8” value is >5-fold.

The same data set, now with this note: stable HEK cell line, A23187-stimulated cAMP accumulation, n ≥ 3.
With `O=C(Nc1nnc(-c2ccc3c(c2)OCCO3)o1)c1ccc(Br)cc1` [F0608-0011], the “hAC1 % Inhib.” value was determined as 101 ± 1%.
Still for that read-out and setting: the value for `CC1CC(C)CN(S(=O)(=O)c2ccc(C(=O)Nc3nnc(-c4cccs4)o3)cc2)C1` (stereo not shown) [F0559-0346] was 99 ± 1%; that for `O=C(Nc1nnc(-c2ccc3c(c2)CCCC3)o1)c1ccccc1` [F0608-0538] was 101 ± 1%.
With `CSc1cccc(C(=O)Nc2nnc(C3CCCCC3)o2)c1` [F2289-0107], the “hAC1 % Inhib.” value is recorded as 99 ± 1%.
`CCc1c(C)nc(-n2nc(C)cc2NC(=O)c2ccco2)[nH]c1=O` [F2215-0772]: the “hAC1 % Inhib.” value turned out to be 100 ± 1%.
As for `CCc1cc(=O)[nH]c(-n2nc(C)cc2NC(=O)c2ccccc2F)n1` [F2215-0213], the “hAC1 % Inhib.” value came to 99 ± 1%.
Consider `CSc1ccccc1C(=O)Nc1cc(C)nn1-c1nc2c(c(=O)[nH]1)CCC2` [F2215-0954], for which the “hAC1 % Inhib.” value is reported as 99 ± 1%.

The data set is the same for the next values; noted with them: stable HEK cell line, A23187-stimulated cAMP accumulation, n ≥ 3; read-out: hAC1 IC50.
`O=C(Nc1nnc(-c2ccc3c(c2)OCCO3)o1)c1ccc(Br)cc1` [F0608-0011]: the 50% inhibitory concentration (IC50) was determined as 2 ± 0.2 µM.
With `CC1CC(C)CN(S(=O)(=O)c2ccc(C(=O)Nc3nnc(-c4cccs4)o3)cc2)C1` (stereo not shown) [F0559-0346], the IC50 worked out at 9.1 ± 2 µM.
In the case of `O=C(Nc1nnc(-c2ccc3c(c2)CCCC3)o1)c1ccccc1` [F0608-0538], the IC50 is 2.1 ± 0.4 µM.
Still for that read-out and setting: the value for `CSc1cccc(C(=O)Nc2nnc(C3CCCCC3)o2)c1` [F2289-0107] was 7.5 ± 2 µM.
`CCc1c(C)nc(-n2nc(C)cc2NC(=O)c2ccco2)[nH]c1=O` [F2215-0772]: the IC50 came to 0.9 ± 0.2 µM.
For the compound `CCc1cc(=O)[nH]c(-n2nc(C)cc2NC(=O)c2ccccc2F)n1` [F2215-0213], the IC50 was found to be 0.5 ± 0.1 µM.
Consider `CSc1ccccc1C(=O)Nc1cc(C)nn1-c1nc2c(c(=O)[nH]1)CCC2` [F2215-0954], for which the IC50 worked out at 5.9 ± 0.4 µM.

The next data set concerns the target T2, hAC8 (Homo sapiens, UniProt P40145).
T2 construct: expressed in transfected cells
Put plainly: Cyclic AMP accumulation in HEK cells stably expressing AC8, stimulated with A23187 (HTRF). Format: cell-based. The settings on record: % inhibition at 30 μM (negative values indicate a potentiated response).
For `O=C(Nc1nnc(-c2ccc3c(c2)OCCO3)o1)c1ccc(Br)cc1` [F0608-0011], the “hAC8 % Inhib.” value is recorded as 79 ± 1%.
Turning to `CC1CC(C)CN(S(=O)(=O)c2ccc(C(=O)Nc3nnc(-c4cccs4)o3)cc2)C1` (stereo not shown) [F0559-0346], the “hAC8 % Inhib.” value came to 74 ± 13%.
Take `O=C(Nc1nnc(-c2ccc3c(c2)CCCC3)o1)c1ccccc1` [F0608-0538]: the “hAC8 % Inhib.” value is on record as 76 ± 8%.
As for `CSc1cccc(C(=O)Nc2nnc(C3CCCCC3)o2)c1` [F2289-0107], the “hAC8 % Inhib.” value turned out to be 31 ± 2%.
The same measure, in the same setting: to `CCc1c(C)nc(-n2nc(C)cc2NC(=O)c2ccco2)[nH]c1=O` [F2215-0772] belongs 34 ± 7%.
With `CCc1cc(=O)[nH]c(-n2nc(C)cc2NC(=O)c2ccccc2F)n1` [F2215-0213], the “hAC8 % Inhib.” value came to 20 ± 1%.
For `CSc1ccccc1C(=O)Nc1cc(C)nn1-c1nc2c(c(=O)[nH]1)CCC2` [F2215-0954], the “hAC8 % Inhib.” value was determined as 35 ± 8%.

The same data set, now with this note: stable HEK cell line, A23187-stimulated cAMP accumulation, n ≥ 3; read-out: hAC8 IC50.
Turning to `O=C(Nc1nnc(-c2ccc3c(c2)OCCO3)o1)c1ccc(Br)cc1` [F0608-0011], the IC50 stood at 18 ± 2 µM.
`CC1CC(C)CN(S(=O)(=O)c2ccc(C(=O)Nc3nnc(-c4cccs4)o3)cc2)C1` (stereo not shown) [F0559-0346]: the half-maximal inhibitory concentration (IC50) was 17 ± 6 µM.
For `O=C(Nc1nnc(-c2ccc3c(c2)CCCC3)o1)c1ccccc1` [F0608-0538], the IC50 turned out to be 21 ± 4 µM.

The target of another data set is T3, hAC2 (Homo sapiens, UniProt Q08462).
T3 construct: expressed in transfected cells
T3 sequence (Q08462 whole entry): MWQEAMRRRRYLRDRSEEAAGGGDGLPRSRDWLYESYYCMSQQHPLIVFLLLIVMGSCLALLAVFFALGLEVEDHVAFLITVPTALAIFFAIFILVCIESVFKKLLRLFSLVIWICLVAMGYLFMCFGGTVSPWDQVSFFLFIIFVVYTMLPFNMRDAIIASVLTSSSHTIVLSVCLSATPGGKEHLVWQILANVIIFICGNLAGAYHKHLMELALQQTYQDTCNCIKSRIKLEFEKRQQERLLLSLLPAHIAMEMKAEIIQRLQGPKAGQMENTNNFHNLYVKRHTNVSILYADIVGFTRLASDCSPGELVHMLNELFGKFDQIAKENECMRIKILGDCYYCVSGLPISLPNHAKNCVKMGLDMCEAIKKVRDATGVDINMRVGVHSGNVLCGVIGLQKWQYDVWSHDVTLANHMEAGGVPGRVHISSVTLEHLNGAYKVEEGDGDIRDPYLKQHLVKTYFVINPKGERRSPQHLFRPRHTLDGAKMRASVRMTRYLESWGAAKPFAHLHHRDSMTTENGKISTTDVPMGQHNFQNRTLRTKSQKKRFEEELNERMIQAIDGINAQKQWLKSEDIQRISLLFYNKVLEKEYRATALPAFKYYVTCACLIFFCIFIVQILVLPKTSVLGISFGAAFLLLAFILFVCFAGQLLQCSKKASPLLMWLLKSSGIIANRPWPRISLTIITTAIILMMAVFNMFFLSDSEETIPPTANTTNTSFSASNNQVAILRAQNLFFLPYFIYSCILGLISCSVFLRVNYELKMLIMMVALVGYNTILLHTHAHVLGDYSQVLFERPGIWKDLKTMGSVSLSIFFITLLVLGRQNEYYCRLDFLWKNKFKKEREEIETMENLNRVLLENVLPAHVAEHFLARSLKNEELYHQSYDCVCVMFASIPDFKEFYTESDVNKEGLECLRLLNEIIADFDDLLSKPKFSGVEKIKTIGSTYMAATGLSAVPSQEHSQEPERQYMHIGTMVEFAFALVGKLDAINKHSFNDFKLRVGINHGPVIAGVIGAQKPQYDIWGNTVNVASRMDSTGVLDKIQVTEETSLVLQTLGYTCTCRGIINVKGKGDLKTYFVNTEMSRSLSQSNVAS
Put plainly: Cyclic AMP accumulation in stable HEK-AC2 cells, stimulated with 100 nM PMA. The settings on record: % inhibition at 30 μM, 100 nM PMA-stimulated, negative = potentiated response, n = 2. Format: cell-based. The procedure:
(§1) Cyclic AMP accumulation was measured as previously described (Brust, et al., J. Pharmacol. Exp. Ther. 352, 480-493(2015)). Briefly, cryopreserved cells were thawed, resuspended in optiMEM (Life Technologies), and plated in white, flat bottom, low-volume, tissue culture-treated 384 well plates (PerkinElmer, Shelton, Conn.). Plates with cells were incubated in a 37° C. humidified incubator for 1 h. Inhibitors were added and plates were incubated at room temperature for 30 min followed by the addition of AC stimulants in the presence of 500 μM IBMX. Cells were incubated at room temperature for 1 h and cAMP accumulation was measured using Cisbio's cAMP kit (Cisbio Bioassays, Bedford, Mass.) according to the manufacturer's instructions.
In the case of `O=C(Nc1nnc(-c2ccc3c(c2)OCCO3)o1)c1ccc(Br)cc1` [F0608-0011], the “hAC2 % Inhib.” value is given as -7%.
Same read-out and setting: the value for `CC1CC(C)CN(S(=O)(=O)c2ccc(C(=O)Nc3nnc(-c4cccs4)o3)cc2)C1` (stereo not shown) [F0559-0346] was −6%; that for `O=C(Nc1nnc(-c2ccc3c(c2)CCCC3)o1)c1ccccc1` [F0608-0538] was -95%.
Same read-out and setting: to `CSc1cccc(C(=O)Nc2nnc(C3CCCCC3)o2)c1` [F2289-0107] belongs −210%; to `CCc1c(C)nc(-n2nc(C)cc2NC(=O)c2ccco2)[nH]c1=O` [F2215-0772], 32%; to `CCc1cc(=O)[nH]c(-n2nc(C)cc2NC(=O)c2ccccc2F)n1` [F2215-0213], −70%.
In the case of `CSc1ccccc1C(=O)Nc1cc(C)nn1-c1nc2c(c(=O)[nH]1)CCC2` [F2215-0954], the “hAC2 % Inhib.” value is −185%.

The target in a further data set is T4, hAC5 (Homo sapiens, UniProt O95622).
T4 construct: expressed in transfected cells
T4 sequence (O95622 whole entry): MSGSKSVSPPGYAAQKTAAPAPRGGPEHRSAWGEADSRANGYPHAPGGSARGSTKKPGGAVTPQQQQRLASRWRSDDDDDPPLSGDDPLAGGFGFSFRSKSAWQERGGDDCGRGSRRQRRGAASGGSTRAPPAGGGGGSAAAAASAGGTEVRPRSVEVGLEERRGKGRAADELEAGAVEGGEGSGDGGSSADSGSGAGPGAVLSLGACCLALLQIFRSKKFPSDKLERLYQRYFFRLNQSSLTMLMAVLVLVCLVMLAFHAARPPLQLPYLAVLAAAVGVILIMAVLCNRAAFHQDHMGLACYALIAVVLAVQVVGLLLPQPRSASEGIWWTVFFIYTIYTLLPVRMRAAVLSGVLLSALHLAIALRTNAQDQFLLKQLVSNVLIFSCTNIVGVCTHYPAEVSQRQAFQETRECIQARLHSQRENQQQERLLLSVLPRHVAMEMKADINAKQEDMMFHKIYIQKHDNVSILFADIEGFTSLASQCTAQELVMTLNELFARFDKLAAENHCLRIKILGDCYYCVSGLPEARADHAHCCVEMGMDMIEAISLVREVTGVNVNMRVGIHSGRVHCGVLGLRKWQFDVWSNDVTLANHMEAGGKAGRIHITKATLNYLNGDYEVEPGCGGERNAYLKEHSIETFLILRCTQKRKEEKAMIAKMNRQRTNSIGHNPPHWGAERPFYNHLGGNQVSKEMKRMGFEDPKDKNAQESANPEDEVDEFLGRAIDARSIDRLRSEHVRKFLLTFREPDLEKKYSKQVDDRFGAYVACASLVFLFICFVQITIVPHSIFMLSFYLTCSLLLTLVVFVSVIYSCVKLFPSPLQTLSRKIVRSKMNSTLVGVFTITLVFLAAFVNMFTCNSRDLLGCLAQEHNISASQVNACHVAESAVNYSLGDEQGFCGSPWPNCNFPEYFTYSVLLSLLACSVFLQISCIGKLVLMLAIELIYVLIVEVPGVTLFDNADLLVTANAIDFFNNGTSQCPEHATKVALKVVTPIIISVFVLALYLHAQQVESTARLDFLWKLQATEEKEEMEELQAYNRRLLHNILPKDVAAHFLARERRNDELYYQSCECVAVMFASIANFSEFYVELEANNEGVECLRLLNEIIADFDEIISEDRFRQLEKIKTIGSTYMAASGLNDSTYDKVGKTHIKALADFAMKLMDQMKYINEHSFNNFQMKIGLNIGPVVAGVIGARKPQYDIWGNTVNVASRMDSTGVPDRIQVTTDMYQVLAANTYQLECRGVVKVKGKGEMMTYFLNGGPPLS
Kind of data set: Cyclic AMP accumulation in stable HEK-AC5 cells, stimulated with 300 nM forskolin. The settings on record: % inhibition at 30 μM, 300 nM forskolin-stimulated, negative = potentiated response, n = 2. It is filed as cell-based. The procedure: as §1
For the compound `O=C(Nc1nnc(-c2ccc3c(c2)OCCO3)o1)c1ccc(Br)cc1` [F0608-0011], the “hAC5 % Inhib.” value is on record as −10%.
Take `CC1CC(C)CN(S(=O)(=O)c2ccc(C(=O)Nc3nnc(-c4cccs4)o3)cc2)C1` (stereo not shown) [F0559-0346]: the “hAC5 % Inhib.” value was found to be 4%.
For the compound `O=C(Nc1nnc(-c2ccc3c(c2)CCCC3)o1)c1ccccc1` [F0608-0538], the “hAC5 % Inhib.” value was −34%.
As for `CSc1cccc(C(=O)Nc2nnc(C3CCCCC3)o2)c1` [F2289-0107], the “hAC5 % Inhib.” value is reported as -28%.
Consider `CCc1c(C)nc(-n2nc(C)cc2NC(=O)c2ccco2)[nH]c1=O` [F2215-0772], for which the “hAC5 % Inhib.” value is recorded as 13%.
Regarding `CCc1cc(=O)[nH]c(-n2nc(C)cc2NC(=O)c2ccccc2F)n1` [F2215-0213], the “hAC5 % Inhib.” value is given as 9%.
Still for that read-out and setting: to `CSc1ccccc1C(=O)Nc1cc(C)nn1-c1nc2c(c(=O)[nH]1)CCC2` [F2215-0954] belongs −21%.

Another data set relates to AC1-HEK cells.
Experiment: not given
Settings: not given
With `O=C(Nc1nnc(-c2ccc3c(c2)OCCO3)o1)c1ccc(Br)cc1` [F0608-0011], the “Viability % Vehicle” value worked out at 125 ± 3 % Vehicle.
Regarding `CC1CC(C)CN(S(=O)(=O)c2ccc(C(=O)Nc3nnc(-c4cccs4)o3)cc2)C1` (stereo not shown) [F0559-0346], the “Viability % Vehicle” value amounted to 118 ± 2 % Vehicle.
On the same count and under the same terms, to `O=C(Nc1nnc(-c2ccc3c(c2)CCCC3)o1)c1ccccc1` [F0608-0538] belongs 118 ± 6 % Vehicle; to `CSc1cccc(C(=O)Nc2nnc(C3CCCCC3)o2)c1` [F2289-0107], 117 ± 1 % Vehicle.
Regarding `CCc1c(C)nc(-n2nc(C)cc2NC(=O)c2ccco2)[nH]c1=O` [F2215-0772], the “Viability % Vehicle” value is listed as 93 ± 1 % Vehicle.
As for `CCc1cc(=O)[nH]c(-n2nc(C)cc2NC(=O)c2ccccc2F)n1` [F2215-0213], the “Viability % Vehicle” value amounted to 101 ± 17 % Vehicle.
Still for that read-out and setting: the value for `CSc1ccccc1C(=O)Nc1cc(C)nn1-c1nc2c(c(=O)[nH]1)CCC2` [F2215-0954] was 106 ± 14 % Vehicle.

The target of the next data set is T3, hAC2.
Experiment: not given
The settings on record: data from Brust et al. 2017; % inhibition at 30 μM, PMA-stimulated, negative = potentiated; cited from earlier work.
As to `O=c1cc(C(Cl)(Cl)Cl)oc2ccc(Cl)cc12` [ST034307, 6-chloro-2-(trichloromethyl)-4H-chromen-4-one], the “hAC2 % Inhib.” value is −142%.

The target in a further data set is T4, hAC5.
Experiment: not given
The settings on record: data from Brust et al. 2017; % inhibition at 30 μM, forskolin-stimulated, negative = potentiated; cited from earlier work.
Regarding `O=c1cc(C(Cl)(Cl)Cl)oc2ccc(Cl)cc12` [ST034307, 6-chloro-2-(trichloromethyl)-4H-chromen-4-one], the “hAC5 % Inhib.” value is −44%.

The subject of another data set is AC1-HEK cells.
Experiment: not given
The settings on record: data from Brust et al. 2017; cited from earlier work.
With `O=c1cc(C(Cl)(Cl)Cl)oc2ccc(Cl)cc12` [ST034307, 6-chloro-2-(trichloromethyl)-4H-chromen-4-one], the “Viability % Vehicle” value is given as 85 ± 6 % Vehicle.

For the next data set, the system named is chronic pain responses.
Experiment: not given
The settings on record: both mice and rats; cited from earlier work.
Turning to `Nc1ncnc2c1ncn2CCNCCCCCO` [NB001], the “effect on chronic pain responses (inflammatory and neuropathic)” value is recorded as “markedly attenuated chronic pain responses”.

These data come from US20200031785A1, “METHODS FOR TREATING CHRONIC PAIN AND OPIOID DEPENDENCE USING ADENYLYL CYCLASE INHIBITORS” (Purdue Research Foundation, priority 2017, published 2020).
